What is called melting point is the temperature, or range, at which the solid turns liquid. `COc1ccccc1-c1cc(-c2ccc(/C=C3\SC(=O)NC3=O)cc2)cc2c1OCO2` [Compound 4, 4-[3-(2-Methoxyphenyl)-4,5-methylenedioxyphenyl]-benzylidene-2,4-thiazolidinedione]: the melting point was 227 to 228 °C (dec.).

Consider `COc1ccc(-c2ccc(/C=C3\SC(=S)NC3=O)cc2)cc1C12CC3CC(CC(C3)C1)C2` [Compound 6, 4-[3-(1-Adamantyl)-4-methoxyphenyl]-benzylidene-2-thioxo-4-thiazolidinedione], for which the melting point was 313 to 317 °C.

As for `O=C1NC(=O)/C(=C/c2ccc(-c3ccc(O)c(C45CC6CC(CC(C6)C4)C5)c3)cc2)S1` [Compound 7, 4-[3-(1-Adamantyl)-4-hydroxyphenyl]benzylidene-2,4-thiazolidinedione], the melting point was 307 to 308.5 °C.

`COc1ccc(-c2ccc3cc(CC4SC(=O)NC4=O)ccc3c2)cc1C12CC3CC(CC(C3)C1)C2` (stereo not shown) [Compound 9, 6-[3-(1-Adamantyl)-4-methoxyphenyl]-naphthalen-2-yl-methyl-2,4-thiazolidinedione] showed a melting point of 251 to 253 °C.

Compound `COCOc1ccc(-c2ccc(/C=C3\SC(=O)NC3=O)cc2)cc1C12CC3CC(CC(C3)C1)C2` [Compound 10, 4-[3-(1-Adamantyl)-4-methoxymethoxyphenyl]-benzylidene-2,4-thiazolidinedione] came in with a melting point of 253 to 254.5 °C.

In turn, `O=C1NC(=O)C(Cc2ccc3cc(-c4ccc(O)c(C56CC7CC(CC(C7)C5)C6)c4)ccc3c2)S1` (stereo not shown) [Compound 16, 6-[3-(1-Adamantyl)-4-hydroxyphenyl]-naphthalen-2-yl-methyl-2,4-thiazolidinedione] came in with a melting point of 270.5 to 272 °C.

`COc1ccc(-c2ccc3cc(C4SC(=O)NC4=O)ccc3c2)cc1C12CC3CC(CC(C3)C1)C2` (stereo not shown) [Compound 23, 5-[6-(3-[1-Adamantyl]-4-methoxyphenyl)-naphthalen-2-yl]-2,4-thiazolidinedione] came in with a melting point of 205 to 207 °C.

`O=C1NC(=O)C(c2ccc3cc(-c4ccc(O)c(C56CC7CC(CC(C7)C5)C6)c4)ccc3c2)S1` (stereo not shown) [Compound 24, 5-[6-(3-[1-Adamantyl]-4-hydroxyphenyl)-naphthalen-2-yl]-2,4-thiazolidinedione] returned a melting point of 312 to 314.5 °C.

Turning to `O=C1NC(=O)/C(=C/c2ccc(-c3ccc(O)c(C45CC6CC(CC(C6)C4)C5)c3)nc2)S1` [Compound 33], the melting point was in the range of 315 to 318 °C.

Take `O=C1NC(=O)/C(=C/c2ccc(-c3cc(F)c(O)c(C45CC6CC(CC(C6)C4)C5)c3)cc2)S1` [Compound 34, 4-[3-(1-Adamantyl)-4-hydroxy-5-fluoro-phenyl]benzylidene-2,4-thiazolidinedione]: the melting point was 305 to 308 °C.

Regarding `O=C1NC(=O)/C(=C/c2ccc(-c3ccc(O)c(C45CC6CC(CC(C6)C4)C5)c3)c(O)c2)S1` [Compound 35, 4-[3-(1-Adamantyl)-4-hydroxy-phenyl]-5-hydroxybenzylidene-2,4-thiazolidinedione], the melting point was in the range of 224 to 226 °C.

`Cc1cc(O)c(C23CC4CC(CC(C4)C2)C3)cc1-c1ccc(/C=C2\SC(=O)NC2=O)cc1` [Compound 36, 4-[3-(1-Adamantyl)-4-hydroxy-6-methyl-phenyl]benzylidene-2,4-thiazolidinedione] yielded a melting point of 275 to 280 °C.

`O=C1NC(=O)/C(=C/c2ccc(-c3cc(F)c(O)c(C45CC6CC(CC(C6)C4)C5)c3)nc2)S1` [Compound 37] came in with a melting point of 307 to 310 °C.

Compound `O=C1NC(=O)/C(=C/c2ccc(-c3cc(Cl)c(O)c(C45CC6CC(CC(C6)C4)C5)c3)cc2)S1` [Compound 38, 4-[3-(1-Adamantyl)-4-hydroxy-5-chloro-phenyl]benzylidene-2,4-thiazolidinedione] yielded a melting point of 323 to 328 °C.

Take `CC(C)(C)c1cc(-c2ccc(/C=C3\SC(=O)NC3=O)cc2)ccc1O` [Compound 39, 4-[3-(t-Butyl)-4-hydroxy-phenyl]benzylidene-2,4-thiazolidinedione]: the melting point was 256 to 257 °C.

For the compound `CC(C)(C)c1cc(-c2ccc(/C=C3\SC(=O)NC3=O)cn2)ccc1O` [Compound 40], the melting point fell in the range of 303 to 304 °C.

As for `O=C1NC(=O)/C(=C/c2ccc(-c3ccc(O)c(C45CC6CC(CC(C6)C4)C5)c3)c(F)c2)S1` [Compound 41, 4-[3-(1-Adamantyl)-4-hydroxy-phenyl]-5-fluorobenzylidene-2,4-thiazolidinedione], the melting point lay within 270 to 274 °C.

Take `O=C1NC(=O)/C(=C/c2ccc(-c3ccc(O)c(C45CC6CC(CC(C6)C4)C5)c3)cc2F)S1` [Compound 42, 4-[3-(1-Adamantyl)-4-hydroxy-phenyl]-6-fluorobenzylidene-2,4-thiazolidinedione]: the melting point is 307 to 309 °C.

`O=C1NC(=O)/C(=C/c2ccc(-c3cc(Cl)c(O)c(C45CC6CC(CC(C6)C4)C5)c3)nc2)S1` [Compound 43] had a melting point of 339 to 342 °C.

`COc1cc(-c2ccc(/C=C3\SC(=O)NC3=O)cn2)cc(C23CC4CC(CC(C4)C2)C3)c1O` [Compound 44] registered a melting point of 211 to 216 °C.

`O=C1NC(=O)/C(=C/c2ccc(-c3ccc(O)c(C45CC6CC(CC(C6)C4)C5)c3)c(OC(F)(F)F)c2)S1` [Compound 46, 4-[3-(1-Adamantyl)-4-hydroxy-phenyl]-5-triflouromethoxybenzylidene-2,4-thiazolidinedione] registered a melting point of 238 to 240 °C.

`CC1(c2cc(-c3ccc(/C=C4\SC(=O)NC4=O)cn3)ccc2O)CCCCC1` [Compound 47] came in with a melting point of 293 to 295 °C.

Turning to `O=C1NC(=O)/C(=C/c2ccc(-c3ccc(O)c(C45CC6CC(CC(C6)C4)C5)c3)c(Cl)c2)S1` [Compound 48, 4-[3-(1-Adamantyl)-4-hydroxy-phenyl]-5-chlorobenzylidene-2,4thiazolidinedione], the melting point is > 280 °C (dec.).

In the case of `Cc1cc(/C=C2\SC(=O)NC2=O)ccc1-c1ccc(O)c(C23CC4CC(CC(C4)C2)C3)c1` [Compound 48, 4-[3-(1-Adamantyl)-4-hydroxy-phenyl]-5-methylbenzylidene-2,4-thiazolidinedione], the melting point was > 305 °C (dec.).

In turn, `CCOc1cc(/C=C2\SC(=O)NC2=O)ccc1-c1ccc(O)c(C23CC4CC(CC(C4)C2)C3)c1` [Compound 49, 4-[3-(1-Adamantyl)-4-hydroxy-phenyl]-5-ethoxybenzylidene-2,4-thiazolidinedione] came in with a melting point of 298 to 302 °C.

As to `O=C1NC(=O)/C(=C/c2ccc(-c3ccc(O)c(C45CC6CC(CC(C6)C4)C5)c3)c([N+](=O)[O-])c2)S1` [Compound 50, 4-[3-(1-Adamantyl)-4-hydroxy-phenyl]-5-nitrobenzylidene-2,4-thiazolidinedione], the melting point was 262 to 264 °C.

Compound `Nc1cc(/C=C2\SC(=O)NC2=O)ccc1-c1ccc(O)c(C23CC4CC(CC(C4)C2)C3)c1` [Compound 51, 4-[3-(1-Adamantyl)-4-hydroxy-phenyl]-5-aminobenzylidene-2,4-thiazolidinedione] yielded a melting point of 167 to 169 °C.

In the case of `CC(c1ccc(-c2ccc(O)c(C34CC5CC(CC(C5)C3)C4)c2)nc1)C1SC(=O)NC1=O` (stereo not shown) [Compound 52, {1-[6-(3-Adamantan-1-yl-4-hydroxy-phenyl)-pyridin-3-yl]-ethyl}-thiazolidine-2,4-dione], the melting point lay in the range of 169 to 171 °C.

Take `O=C1NC(=O)/C(=C/c2ccc(-c3cc([N+](=O)[O-])c(O)c(C45CC6CC(CC(C6)C4)C5)c3)nc2)S1` [Compound 53]: the melting point was in the range of 291 to 293 °C.

`C/C(=C1/SC(=O)NC1=O)c1ccc(-c2ccc(O)c(C34CC5CC(CC(C5)C3)C4)c2)nc1` [Compound 54, (Z)-{1-[6-(3-Adamantan-1-yl-4-hydroxy-phenyl)-pyridin-3-yl]-ethylidene}-thiazolidine-2,4-dione] registered a melting point of 181 to 182 °C.

Take `C/C(=C1\SC(=O)NC1=O)c1ccc(-c2ccc(O)c(C34CC5CC(CC(C5)C3)C4)c2)nc1` [Compound 55, (E)-{1-[6-(3-Adamantan-1-yl-4-hydroxy-phenyl)-pyridin-3-yl]-ethylidene}-thiazolidine-2,4-dione]: the melting point lay in the range of 224 to 225 °C.

The record behind these values is patent US7153875B2, “Heterocyclic derivatives for the treatment of cancer and other proliferative diseases” (Incyte San Diego, priority 2001, dated 2006).
